Laboratory results reported in patent US11072634B2, “Inhibitors of transglutaminases” (Zedira GmbH, priority 2016, dated 2021).

Key:
[1] = target: T1, recombinant human factor XIII A-subunit (rhFXIII-A, plasma transglutaminase) (Homo sapiens, UniProt P00488); assay: Inhibition of rec. human coagulation factor XIII (fluorescence, Abz-NE(CAD-DNP)EQVSPLILLK-OH); type: biochemical; details: Table 1, selectivity with respect to FXIII; read-out: IC50 FXIII
T1 construct: His6; purchased Zedira 1027 (so in the source); T027)
T1 sequence (P00488 39-732 limits assumed): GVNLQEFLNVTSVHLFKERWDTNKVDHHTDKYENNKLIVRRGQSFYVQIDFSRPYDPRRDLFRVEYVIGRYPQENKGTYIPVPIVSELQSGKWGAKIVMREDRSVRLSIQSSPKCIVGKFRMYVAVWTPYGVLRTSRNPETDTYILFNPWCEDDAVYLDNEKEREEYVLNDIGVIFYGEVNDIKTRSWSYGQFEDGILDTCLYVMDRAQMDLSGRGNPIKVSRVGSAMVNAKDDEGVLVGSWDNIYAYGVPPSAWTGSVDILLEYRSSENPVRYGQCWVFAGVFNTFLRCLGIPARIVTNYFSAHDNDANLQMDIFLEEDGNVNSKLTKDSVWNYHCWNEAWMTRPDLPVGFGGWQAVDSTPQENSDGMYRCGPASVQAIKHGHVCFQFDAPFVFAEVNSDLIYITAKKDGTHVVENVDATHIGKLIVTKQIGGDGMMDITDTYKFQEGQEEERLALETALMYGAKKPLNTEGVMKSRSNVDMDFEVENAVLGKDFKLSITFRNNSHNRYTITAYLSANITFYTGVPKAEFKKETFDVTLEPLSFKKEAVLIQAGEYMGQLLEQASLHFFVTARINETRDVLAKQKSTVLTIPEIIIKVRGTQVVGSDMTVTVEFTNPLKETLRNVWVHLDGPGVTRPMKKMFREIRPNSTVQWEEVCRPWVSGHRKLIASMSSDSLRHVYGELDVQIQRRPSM
Method in brief: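 His6-rhFXIII activated by human alpha thrombin in Tris buffer pH 7.4 with 7.5 mM CaCl2, 5 mM DTT, 13.4 mM glycine methylester and 50 μM quenched peptide substrate. Fluorescence (ex 313, em 418 nm) followed at 37 °C for 35 min; IC50 from slope between 20 and 30 min versus 2% DMSO control.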

NRK52E cells = assay: Extracellular matrix protein deposition of NRK52E cells (DC-protein-assay); type: cell-based, Rattus norvegicus; details: hyperglycemic glucose concentrations
Procedure: Fibrosis is a hallmark in diabetic nephropathy and chronic kidney diseases. Proximal tubular epithelial cells show increased TG2 activity and increased extracellular matrix proteins (ECM) accumulation under hyperglycemic conditions. ECM accumulation is a hall mark of fibrosis. […] TG2-activity and ECM-accumulation was measured. Rattus norvegicus kidney derived cell line NRK52E was grown at 37° C. in a humidified atmosphere at 5% (v/v) CO2 in DMEM (Dulbecco's modified Eagle's medium) containing 100 μg/mL streptomycin, 100 units/ml penicillin, […], and 10% (v/v) fetal calf serum. For simulation of normal physiological conditions 6 mM D-glucose were added to the medium, while addition of 24 mM and 36 mM D-glucose simulated hyperglycemic conditions. Reversible TG2 inhibitor E06 in the concentrations indicated in FIG. 1A was added at the time of plating to the medium. Reversible TG2 inhibitor E22 in the concentrations indicated in FIG. 2A was added at the time of plating to the medium.
For the determination of extracellular matrix proteins (ECM) deposition, cells grown in 10 cm Petri-dishes were removed with 1 mL sodium deoxycholate (0.1%) -EDTA (2 mM)-solution. ECM proteins remaining on the plate were solubilized by digestion with trypsin (0.2 mg/mL) -EDTA (2 mM) solution. […] Protein concentration was determined using the DC-protein-assay (BioRad, #5000111).

SMILES | IC50 [1] [µM] | increase of ECM (extracellular matrix protein deposition) (NRK52E cells)
CC(=O)N1CCC[C@H]1C(=O)N[C@@H](CCC(=O)C(N)=O)C(=O)N1CCN(c2ncccc2C)CC1 [Compound E07, (S)-1-acetyl-N—((S)-6-amino-1-(4-(3-methylpyridin-2-yl)piperazin-1-yl)-1,5,6-trioxohexan-2-yl)pyrrolidine-2-carboxamide] | > 100 | 
CCCCCNC(=O)C(=O)CC[C@H](NC(=O)[C@@H]1CCCN1C(C)=O)C(=O)Nc1cccn(CC(=O)NCC(CC)CC)c1=O [Compound E22, (S)-2-((S)-1-acetylpyrrolidine-2-carboxamido)-N1-(1-(2-(2-ethylbutylamino)-2-oxoethyl)-2-oxo-1,2-dihydropyridin-3-yl)-5-oxo-N6-pentylhexanediamide] |  | reduced in a dose dependent manner
CC(=O)N[C@@H](CCC(=O)C(N)=O)C(=O)N1CCN(c2ccccc2Cl)CC1 [Compound E06, (S)-5-acetamido-6-(4-(2-chlorophenyl)piperazin-1-yl)-2,6-dioxohexanamide] | > 100 | reduced in a dose dependent manner
COC(=O)[C@H](CC(C)C)NC(=O)[C@@H]1CCCN1C(=O)[C@@H](NC(=O)[C@H](CCC(=O)C(N)=O)NC(=O)OCc1ccccc1)C(C)C [Compound E02, (S)-methyl 2-((S)-1-((S)-2-((S)-6-amino-2-(benzyloxycarbonylamino)-5,6-dioxo-hexanamido)-3-methylbutanoyl)pyrrolidine-2-carboxamido)-4-methylpentanoate] | > 100 | 
